The microsomal CLint is the capacity of the preparation to metabolise the compound, expressed as a volume cleared per time. Low values mean greater metabolic stability, high ones faster metabolism. Broadly, the bioavailability is the share of a dose that reaches the circulation, judged against a reference dose that is usually intravenous. High values mean good availability, low ones poor availability.

Series [1] deals with ICR mice. The series can be described thus: Hypoglycemic activity test. In kind it is in vivo. Particulars: statement in words in the description. The protocol: Using male 7- to 9-week-old ICR mice (Charles River Laboratories Japan), the effect of each test compound on the blood glucose levels was observed. Specifically, each compound was dissolved in a 60:40 mixture of Gelucire44/14 (Gatefosse) and PEG400 and was orally administered to the animals after a 2-hour fasting period (30 mg/kg, 10 mL/kg). Using a tube coated with dipotassium ethylenediamine tetraacetate, blood samples were collected from the tail vein immediately before administration (Pre-value), and 0.5, 2 and 4 hours after administration. The blood samples were centrifuged (4° C., 3,600 g, 3 min) to obtain plasma samples.
Each sample was diluted 5-fold with physiological saline and the blood glucose level was measured using glucose CII-test Wako (Wako Pure Chemical Industries). 10 μL each of one of the samples, physiological saline and a 100 mg/dL standard glucose solution (200 mg/dL standard glucose solution diluted two-fold with physiological saline) were placed in each well of a 96-well flat plate. 150 μL of a color-forming solution was added to each well and the plate was left at 37° C. for 5 min to allow the solution to develop color. Using a Lucy2 luminescence reader (Aloka), the measurements were taken at OD=492 nm. The decrease in the sigma glucose (mean decrease in the glucose levels at each blood collection point relative to the Pre-value) was determined from the decrease in the glucose level at each blood collection point relative to the Pre-value.

The nature of series [2]: In vitro liver microsome metabolic stability test, Method 1, murine. In kind it is in vitro ADME, mice. The note with it: mouse, microsomes. Background: Microsomes from liver hold many membrane-bound enzymes, among them those of drug oxidation.
Experimental: (§1) In a glass test tube, each test compound was incubated with a solution containing liver microsomes of human (Xenotech) or murine (originally prepared from male 7-week-old ICR mice; Charles River Laboratories Japan) origin at 37° C. for 5 min to evaluate the metabolic stability of the compound. The incubation mixture contained 100 mM potassium phosphate buffer (pH 7.4, Wako Pure Chemical Industries), 3 mM MgCl2 (Wako Pure Chemical Industries), 5 mM glucose-6-phosphate (Roche), 1 mM EDTA (Tokyo Chemical Industry), 1 I.U. glucose 6-phosphate dehydrogenase (Roche) and 1 mg/mL liver microsome. A test compound was dissolved in DMSO and the solution was added to the reaction mixture to a final concentration of 1 μM. The metabolic process was initiated by the addition of an NADPH (Roche) solution to a final concentration of 1 mM and was terminated after 5 min by the addition of an equal volume of acetonitrile (Fischer). After termination of the process, the supernatant was separated by centrifugation and analyzed by a liquid chromatography-equipped mass spectrometer (SHIMADZU 2010A, Shimadzu) for the concentration of unchanged product.
The nature of series [3]: In vitro liver microsome metabolic stability test, Method 1, human. In kind it is in vitro ADME. The note with it: microsomes.
Experimental: as §1
Series [4] can be described thus: in vitro. Particulars: microsomes, pH 7.4. The procedure: In a glass test tube, each test compound was incubated with a solution containing liver microsomes of human (Xenotech) or murine (originally prepared from male 7-week-old ICR mice; Charles River Laboratories Japan) origin at 37° C. for 25 min to evaluate the metabolic stability of the compound. The incubation mixture contained 100 mM potassium phosphate buffer (pH 7.4, Wako Pure Chemical Industries), 3 mM MgCl2 (Wako Pure Chemical Industries), 5 mM glucose-6-phosphate (Roche), 1 mM EDTA (Tokyo Chemical Industry), 1 I.U. glucose 6-phosphate dehydrogenase (Roche) and 0.2 mg/mL liver microsome. A test compound was dissolved in DMSO and the solution was added to the reaction mixture to a final concentration of 1 μM. The metabolic process was initiated by the addition of an NADPH (Roche) solution to a final concentration of 1 mM and was terminated after 25 min by the addition of an equal volume of acetonitrile (Fischer). After termination of the process, the supernatant was separated by centrifugation and analyzed by a liquid chromatography-equipped mass spectrometer (SHIMADZU 2010A, Shimadzu) for the concentration of unchanged product.

Series [5] can be described thus: In vivo pharmacokinetics test (oral bioavailability). Details: species or system mice. Particulars: male, ICR, mouse, plasma, 2 μmol/kg. The procedure: Using male 6-week-old ICR mice (Charles River Laboratories Japan), the oral bioavailability of each test compound was evaluated. Specifically, each test compound was dissolved in dimethylsulfoxide (DMSO, Sigma) and the solution was added to a 1/15 M aqueous solution of sodium dihydrogen phosphate (Wako Pure Chemical Industries) to a concentration of 200 μM. DMSO was added to a final concentration of 30%. The resulting solution was administered to animals. As an intravenous injection group, a group of ICR mice, fasted overnight, were injected in their tail veins with the test compound solution (1 μmol/kg, 5 mL/kg). 5, 15 and 30 minutes after and 1, 2, 4, 8 and 24 hours after the intravenous administration, blood samples were collected from the eyeground of each animal using a heparin-coated capillary tube. […] 10 μL of the separated plasma was diluted with 100 μL of physiological saline and 10 μL of dimethylsulfoxide (sigma) and analyzed by a liquid chromatography-equipped triple quadrupole mass spectrometer (API-3000, Applied Biosystems) for the plasma concentration of unchanged product. The area under the plasma concentration-time curve (AUC) was determined by the trapezoidal method. The bioavailability of a test compound was determined by dividing the average AUC of the oral administration group corrected for the dose by the average AUC of the intravenous administration group.

Take `CS(=O)(=O)c1ccc([C@H](CC2CC(F)C(F)C2)C(=O)Nc2nccs2)cc1` (single isomer, unassigned; (+)) [compound 2, (+)-3-[(1α,3α,4α)-3,4-difluorocyclopentyl]-2-(4-(methylsulfonyl)phenyl)-N-(thiazole-2-yl)propionamide]: the hypoglycemic activity result in series [1] was “do not exhibit high hypoglycemic activity”.
For the compound `CS(=O)(=O)c1ccc(C(CC2CC(F)C(F)C2)C(=O)Nc2nccs2)cc1` (single isomer, unassigned; (-)) [compound 7, (−)-3-[(1β,3α,4α)-3,4-difluorocyclopentyl]-2-(4-(methylsulfonyl)phenyl)-N-(thiazole-2-yl)propionamide], the hypoglycemic activity result in series [1] is listed as “do not exhibit high hypoglycemic activity”.
For `CS(=O)(=O)c1ccc(C(CC2CC(F)C(F)C2)C(=O)Nc2nccs2)cc1` (single isomer, unassigned; (+)) [compound 8, (+)-3-[(1β,3α,4α)-3,4-difluorocyclopentyl]-2-(4-(methylsulfonyl)phenyl)-N-(thiazole-2-yl)propionamide], the hypoglycemic activity result in series [1] is given as “do not exhibit high hypoglycemic activity”.
On to `Cn1ccc(NC(=O)C(CC2CC(F)C(F)C2)c2ccc(S(C)(=O)=O)cc2)n1` (single isomer, unassigned; (-)) [compound 3, (−)-3-[(1α,3α,4α)-3,4-difluorocyclopentyl]-2-(4-(methylsulfonyl)phenyl)-N-(1-methylpyrazole-3-yl)propionamide], for which the metabolic clearance in series [2] and in series [3] was at most 0.06 mL/min/mg protein each time.
On to `CS(=O)(=O)c1ccc(C(C[C@H]2C[C@@H](F)[C@@H](F)C2)C(=O)Nc2nccs2)cc1` (single isomer, unassigned; (-)) [Compound No. 1, (−)-3-[(1α,3α,4α)-3,4-difluorocyclopentyl]-2-(4-(methylsulfonyl)phenyl)-N-(thiazole-2-yl)propionamide], for which the microsomal CLint at 1 μM in series [2] (male, ICR, pH 7.4) was at most 60 µL/min/mg; in series [4] (human), at most 50 µL/min/mg; in series [4] (male, ICR, mouse) it was at most 50 µL/min/mg; in series [3] (pH 7.4), at most 60 µL/min/mg. Besides, the bioavailability in series [5] was at least 50%.

The values are drawn from patent US8173649B2, “Glucokinase activator” (Kyorin Pharmaceutical Co., Ltd., priority 2006, dated 2012).
